Reference: patent US7094770B2, “3′-or 2′-hydroxymethyl substituted nucleoside derivatives for treatment of hepatitis virus infections” (Pharmasset, Ltd., priority 2000, dated 2006)
Where two headings read alike, the source gives them in different places.

Assays:
[1] = tested on: HIV; conditions: literature; cited from earlier work
[2] = tested on: HSV; conditions: literature; cited from earlier work
[3] = target: reverse transcriptase of human immunodeficiency virus (Human immunodeficiency virus type 1 group M subtype B, UniProt P03366); conditions: tested as the 5′-triphosphate; cited from earlier work
[4] = tested on: HBV; experiment: Cell culture assay for anti-HBV activity (2.2.15 cells, HBV DNA in medium by Southern blot); type: cell-based, Hepatitis B virus; conditions: for EC50: read-out: Anti-HBV EC50
Source text: We follow the protocol described by Korba and Gerin(Antiviral Res., 1992, 19:55) and Pai et al. (Antimicrobial Agents Chemother., 1996, 40:380) which is used widely in the field. The HepG 2 2.2.15 cells contain a stably integrated HBV genome, the transcript from which serves as a template for viral replication. The cells produce virions which are elaborated into the medium. The production of the virion DNA is monitored by analysis of medium by Southern blotting. Drugs which inhibit viral replication reduce the levels of virion DNA in the medium, relative to controls.
Confluent cells in 24 well tissue culture dishes are treated with test compounds starting at 1 nM and extending logarithmically to 10 μM (1 nM, 3.2, 10 nM, 32, 100 nM, 1 μM, 10 μM […]). Medium is changed […] every 3 days and DNA extracted from the 3, 6, and […] day samples. The virions are concentrated by polyethylene glycol precipitation (equal volume addition of PEG 8000). After cooling on ice the samples are spun and the pellets treated with SDS and Proteinase K followed by Phenol:Chloroform extraction and ethanol precipitation of the DNA. The DNA is analyzed for HBV sequences by Southern hybridization. The probe used for the analysis is a ^32P labeled Eco RI fragment from the HBV clone described by Korba et al. 3TC is used as a positive control compound with known activity against HBV.
System: The most widely used system for the study of anti-HBV agents is the hepatoma cell culture system with the HBV genome. These cells are designated as the 2.2.15 cells, AD38 cells and AD79 cells. The 2.2.15 cells were generated by the transfection of the human hepatoma cells—HepG2 with HBV DNA. (Sells, et al., Proc. Natl. Acad. Sci. USA 84:1005–1009, 1987) HBV viral replication takes place in these cells. The HBV replication can be monitored intracellularly as well as extracellularly in these cells.
Assay for Anti-HBV agents: 2.215 cells are grown in multi-well dishes in RPMI medium supplemented with 4% fetal bovine serum. After 3 to 4 days of growing the cells, they are treated with varying concentrations of the test compound(s). The test compounds are dissolved in DMSO or sterile water. Cultures without the addition of the test compounds serve as controls. The addition of the test compound(s) is repeated at 3-day intervals. The medium is changed and replaced with appropriate concentration of the test compound. At the end of the 9-day treatment period, the culture medium is harvested and processed for viral DNA. The viral DNA thus obtained is analyzed by Southern blot analysis. After the Southern transfer, the blot is subjected to hybridization to an HBV specific probe to detect HBV DNA. The hybriodization is carried out overnight. After the hybridization, free probe is removed by washing of the blots. The specific hybridization is visualized by autoradiography. Inhibition produced by the test compound is calculated with reference to the levels of HBV DNA in the control samples.

[5] = tested on: murine leukemia virus (MuLV); conditions: literature; cited from earlier work
[6] = tested on: HSV-1; conditions: literature; cited from earlier work
[7] = tested on: HSV-2; conditions: literature; cited from earlier work
[8] = tested on: human cytomegalovirus (HCMV); conditions: literature; cited from earlier work
[9] = tested on: Varicella zoster virus (VZV); conditions: literature; cited from earlier work
[10] = tested on: Epstein Barr virus (EBV); conditions: literature; cited from earlier work
[11] = tested on: HIV-1; experiment: Anti-HIV evaluation in human PBM cells; type: cell-based; conditions: HIV-1
Source text: (§1) Human PBM cells from healthy donors, seronegative for HIV-1 and HBV, are isolated by a single-step Ficoll-Hypaque discontinuous gradient centrifugation and propagated as described previously (Schinazi et al., Antimicrobial Agents Chemother., 1990, 34:1061; 1992, 36:2423; 1993, 37:875). Compounds are screened for activity against HIV-1 and cytotoxicity by a protocol reported previously reported by Schinazi, et al. The prototype strain of HIV-1LAI obtained from the Centers for Disease Control and Prevention, Atlanta, Ga., is used as the standard virus for the studies in human PBM cells.

[12] = tested on: PBM cells; experiment: Cytotoxicity in PBM cells; type: cell-based, human
Procedure: (§2) We also perform toxicity assays by measuring the inhibition of uptake of […] dye by treated cells. These assays are done in 96 well plates. After the standard 10 day treatment regimen medium is removed and PBS containing MTS dye added to each well. After a 2 hour incubation the absorbance of the metabolized product is measured at 490 nm.
as §1

[13] = tested on: Vero cells; experiment: Cytotoxicity in Vero cells; type: cell-based
Procedure: as §2

[14] = Cytotoxicity in CEM cells; type: cell-based; conditions: human
Procedure: as §2

[15] = tested on: HBV; conditions: background statement; cited from earlier work

## Nc1ccn([C@H]2C[C@H](CO)[C@@H](CO)O2)c(=O)n1 [2′,3′-dideoxy-3′-hydroxymethyl-cytidine]
[1]
  Activity against HIV (in words): good activity
[2]
  Activity against HSV (in words): active

## CO[C@H]1C[C@H](n2cc(C)c(=O)[nH]c2=O)O[C@@H]1CO [3′-O-methylthymidine]
[1]
  Activity against HIV (in words): inactive
[3]
  Inhibition of HIV reverse transcriptase (in words): exceptionally potent inhibitor

## Cc1cn([C@H]2C[C@H](CO)[C@@H](CO)O2)c(=O)[nH]c1=O [3′-deoxy-3′-hydroxymethylthymidine]
[4]; "we discovered"
  Activity against HBV (in words): potent agent
[1]
  Activity against HIV (in words): devoid of activity
[5]
  Activity against MuLV (in words): devoid of activity
[6]
  Activity against HSV-1 (in words): devoid of activity
[7]
  Activity against HSV-2 (in words): devoid of activity
[8]
  Activity against HCMV (in words): devoid of activity
[9]
  Activity against VZV (in words): devoid of activity
[10]
  Activity against EBV (in words): devoid of activity

## O=c1[nH]c(=O)n(C2O[C@H](CO)[C@@H](CO)[C@@H]2O)cc1C=CBr (stereo partly drawn) [5-bromovinyl-1-(3-deoxy-3-hydroxymethyl-D-arabinofuranosyl)-uracil]
[2]
  Activity against HSV (in words): active

## Cc1cn(C2CC(CO)C(CO)O2)c(=O)[nH]c1=O (stereo not shown) [Compound 4 (Series 1)]
[4]
  EC50: > 10 µM
[11]
  EC50: 87.7 µM
[12]
  IC50: > 100 µM
[13]
  IC50: > 100 µM

## Cc1cn(C2OC(CO)C(CO)C2F)c(=O)nc1N (stereo not shown) [Compound 11 (Series 2)]
[4]
  EC50: < 10 µM
[4]; virus not named
  Antiviral activity (in words): moderate activities
[11]
  EC50: 112 µM
[12]
  IC50: > 100 µM
[14]
  IC50 at 10 day: > 100 µM
[13]
  IC50: > 100 µM

## Cc1cn(C2CC(CO)N(C)O2)c(=O)[nH]c1=O (stereo not shown) [Compound 40 (Series 2)]
[4]
  EC50: > 10 µM
[11]
  EC50: > 100 µM
[12]
  IC50: > 100 µM
[13]
  IC50: > 100 µM

## CN(O)C1C(CO)OC(n2cc(F)c(=O)[nH]c2=O)C1F (stereo not shown) [Compound 61 (Series 2)]
[4]
  EC50: > 10 µM
[11]
  EC50: 52.3 µM
[12]
  IC50: > 100 µM
[13]
  IC50: > 100 µM

## Nc1nc(=O)n([C@@H]2O[C@H](CO)[C@@H](O)[C@@H]2F)cc1I [Fiacitabine]
[15]
  Activity against HBV (in words): effectively inhibit replication
[1]
  Activity against HIV (in words): devoid of activity

## O=c1[nH]c(=O)n([C@@H]2O[C@H](CO)[C@@H](O)[C@@H]2F)cc1I [Fialuridine]
[15]
  Activity against HBV (in words): effectively inhibit replication
[1]
  Activity against HIV (in words): devoid of activity

## Cc1cn([C@H]2C[C@H](N=[N+]=[N-])[C@@H](CO)O2)c(=O)[nH]c1=O [Zidovudine]
[15]
  Activity against HBV (in words): inactive
[3]
  Inhibition of HIV reverse transcriptase (in words): potent inhibitor
